According to patent publication US20250376490A1, “C[…]-DERIVED PEPTIDE-NUCLEIC ACID HYBRID MOLECULE FOR TREATING INFECTION CAUSED BY MUTATED CORONAVIRUS” (priority 2022, published 2025):

Legend:
SARS-COV-2 RBD = SARS-COV-2 RBD (Severe acute respiratory syndrome coronavirus 2, UniProt P0DTC2); conditions: co-incubation with P05DHu and AM 122 antibodies
Protocol: Specifically, after thermal denaturation and rapid cooling, they were co-incubated with 5 nM RBD beads (final volume: 100 μL) with gentle rotation for 1 hour at room temperature. Beads were washed three times, and resuspended in 100 μL of 1× PBSMT for analysis with CytoFLEX S (Beckman Coulter). The competitive RBD-binding fraction was calculated as the ratio of the competitive mean fluorescence intensity to the uncompetitive (free-binding) mean fluorescence intensity.

pseudotype SARS-COV-2 = type: cell-based
RBD-hACE2 binding = RBD-hACE2 binding (Severe acute respiratory syndrome coronavirus 2, UniProt P0DTC2); conditions: 3 μM concentration

Substance	RBD binding competition between R7-02 and antibodies (SARS-COV-2 RBD)	infection rate with pseudotype SARS-COV-2 (percentage of GFP-expressing infected cells) (pseudotype SARS-COV-2) [%]	neutralizing efficiency compared to other RBD binders (pseudotype SARS-COV-2)	inhibition of RBD-hACE2 interaction (RBD-hACE2 binding) [%]
R7-02 (LGKGDFRK)	insignificant	1.9	significantly higher or comparable	
LGKGDFR [LGKGDFR peptide]		12.6		11.69
